Calls of active or inactive are those of the source. For most assays here, no stated cut-off is given here; in the data, actives have a measured IC50 and inactives only a lower limit.
Tests used:
Type in all cases: functional
[1] = target: T1, Caspase-3 (Homo sapiens, UniProt P42574); assay: caspase-3 inhibitors as off-family protease, SAR follow-up, selectivity assay for SENP protease inhibitor project, biochemical, luminescence, set 2 (AID 588599)
T1 sequence (P42574 whole entry): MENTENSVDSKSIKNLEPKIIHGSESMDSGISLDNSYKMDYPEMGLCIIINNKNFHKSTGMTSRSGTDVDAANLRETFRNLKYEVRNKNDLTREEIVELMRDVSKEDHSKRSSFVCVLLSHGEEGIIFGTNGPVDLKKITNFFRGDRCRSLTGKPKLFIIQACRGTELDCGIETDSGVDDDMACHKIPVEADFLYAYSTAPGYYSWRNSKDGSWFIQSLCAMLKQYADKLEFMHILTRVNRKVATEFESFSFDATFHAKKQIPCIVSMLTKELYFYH

[2] = target: T2, Sentrin-specific protease 7 (Homo sapiens, UniProt Q9BQF6); assay: SENP7 protease inhibitors, SAR follow-up, biochemical, luminescence, set 2 (AID 588600)
T2 sequence (Q9BQF6 whole entry): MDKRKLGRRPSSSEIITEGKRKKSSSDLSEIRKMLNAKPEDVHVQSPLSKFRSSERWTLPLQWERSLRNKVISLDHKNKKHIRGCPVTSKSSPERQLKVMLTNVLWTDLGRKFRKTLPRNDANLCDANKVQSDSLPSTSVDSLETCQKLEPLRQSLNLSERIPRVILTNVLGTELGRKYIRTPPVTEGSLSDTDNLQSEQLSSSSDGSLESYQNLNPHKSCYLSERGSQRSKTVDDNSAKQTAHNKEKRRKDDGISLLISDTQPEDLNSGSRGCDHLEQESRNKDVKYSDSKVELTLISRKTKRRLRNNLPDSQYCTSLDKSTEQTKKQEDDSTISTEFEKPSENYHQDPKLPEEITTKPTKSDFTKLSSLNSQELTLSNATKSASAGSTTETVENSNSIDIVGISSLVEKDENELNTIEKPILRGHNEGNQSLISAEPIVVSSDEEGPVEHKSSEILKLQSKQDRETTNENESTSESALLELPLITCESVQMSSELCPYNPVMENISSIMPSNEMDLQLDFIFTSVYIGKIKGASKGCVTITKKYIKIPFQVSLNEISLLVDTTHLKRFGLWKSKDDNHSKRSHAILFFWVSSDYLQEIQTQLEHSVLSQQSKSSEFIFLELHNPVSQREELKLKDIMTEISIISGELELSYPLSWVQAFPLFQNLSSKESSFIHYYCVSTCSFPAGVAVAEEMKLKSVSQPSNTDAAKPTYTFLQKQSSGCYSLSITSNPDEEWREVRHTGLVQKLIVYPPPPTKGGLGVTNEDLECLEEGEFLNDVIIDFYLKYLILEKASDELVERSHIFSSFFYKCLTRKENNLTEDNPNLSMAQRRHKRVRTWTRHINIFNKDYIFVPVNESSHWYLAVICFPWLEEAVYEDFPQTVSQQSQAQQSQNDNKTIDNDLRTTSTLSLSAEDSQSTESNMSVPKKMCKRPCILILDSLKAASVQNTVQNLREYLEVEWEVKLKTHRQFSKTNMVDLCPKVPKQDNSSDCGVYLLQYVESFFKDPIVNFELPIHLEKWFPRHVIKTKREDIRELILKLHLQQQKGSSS

[3] = target: T3, Sentrin-specific protease 6 (Homo sapiens, UniProt Q9GZR1); assay: SAR Analysis of small molecule inhibitors of Sentrin-specific protease 6 (SENP6) using a Luminescent assay. [Related pubchem assays (depositor defined):AID2582, AID2599]
T3 sequence (Q9GZR1 whole entry): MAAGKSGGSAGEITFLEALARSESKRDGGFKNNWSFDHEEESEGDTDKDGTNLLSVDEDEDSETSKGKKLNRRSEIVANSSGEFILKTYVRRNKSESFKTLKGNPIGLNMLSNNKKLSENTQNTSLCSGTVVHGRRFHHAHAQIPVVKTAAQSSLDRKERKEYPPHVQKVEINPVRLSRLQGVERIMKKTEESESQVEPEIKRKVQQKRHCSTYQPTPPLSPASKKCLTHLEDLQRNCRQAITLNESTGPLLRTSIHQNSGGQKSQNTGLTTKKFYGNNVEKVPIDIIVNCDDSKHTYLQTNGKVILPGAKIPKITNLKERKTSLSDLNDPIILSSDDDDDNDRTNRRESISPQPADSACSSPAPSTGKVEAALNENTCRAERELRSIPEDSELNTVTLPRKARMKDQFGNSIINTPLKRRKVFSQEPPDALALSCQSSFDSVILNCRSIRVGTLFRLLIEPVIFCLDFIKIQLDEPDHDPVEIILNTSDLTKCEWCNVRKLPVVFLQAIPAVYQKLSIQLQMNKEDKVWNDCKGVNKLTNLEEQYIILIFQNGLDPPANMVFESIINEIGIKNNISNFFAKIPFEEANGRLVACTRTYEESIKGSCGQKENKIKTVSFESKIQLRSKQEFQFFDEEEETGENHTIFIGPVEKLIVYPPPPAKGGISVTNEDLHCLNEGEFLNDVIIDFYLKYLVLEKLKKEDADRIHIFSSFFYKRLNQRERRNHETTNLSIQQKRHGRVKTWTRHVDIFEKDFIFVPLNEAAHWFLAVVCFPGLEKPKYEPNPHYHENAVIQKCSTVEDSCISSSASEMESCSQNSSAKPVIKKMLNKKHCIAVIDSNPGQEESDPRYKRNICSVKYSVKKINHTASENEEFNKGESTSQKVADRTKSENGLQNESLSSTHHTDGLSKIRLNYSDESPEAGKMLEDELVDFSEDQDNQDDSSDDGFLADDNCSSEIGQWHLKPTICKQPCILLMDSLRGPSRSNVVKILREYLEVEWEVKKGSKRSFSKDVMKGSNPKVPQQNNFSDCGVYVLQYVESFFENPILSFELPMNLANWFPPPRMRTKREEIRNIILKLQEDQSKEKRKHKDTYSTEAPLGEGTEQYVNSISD

[4] = target: T4, Sentrin-specific protease 8 (Homo sapiens, UniProt Q96LD8); assay: SENP8 protease inhibitors, SAR follow-up, biochemical, luminescence (AID 504501)
T4 sequence (Q96LD8 whole entry): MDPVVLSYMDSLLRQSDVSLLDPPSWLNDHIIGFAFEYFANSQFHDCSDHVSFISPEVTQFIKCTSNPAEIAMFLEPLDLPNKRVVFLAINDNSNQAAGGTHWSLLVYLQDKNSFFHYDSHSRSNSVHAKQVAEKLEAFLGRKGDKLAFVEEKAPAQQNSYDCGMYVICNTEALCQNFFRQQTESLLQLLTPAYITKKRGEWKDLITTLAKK

[5] = target: T3, Sentrin-specific protease 6; assay: SENP6 protease inhibitors, SAR follow-up, biochemical, luminescence, set 2 (AID 588598)
[6] = target: T4, Sentrin-specific protease 8; assay: SENP8 protease inhibitors, SAR follow-up, biochemical, luminescence, set 2 (AID 588601)
[7] = target: T1, Caspase-3; assay: SAR Analysis of small molecule inhibitors of Sentrin-specific proteases (SENPs) using a Caspase-3 Selectivity assay. [Related pubchem assays (depositor defined):AID2540, AID2599, AID434973, AID489001]
[8] = target: T2, Sentrin-specific protease 7; assay: SENP7 protease inhibitors, SAR follow-up, biochemical, luminescence (AID 504497)
[9] = target: Ras and Rab interactor 1/Tyrosine-protein kinase ABL1 (Homo sapiens, UniProt P00519+Q13671);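 further: biochemical TR-FRET dose-response test measuring inhibition of binding between Rin1 and Abl proteins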
[10] = target: T5, Aurora kinase A (Homo sapiens, UniProt O14965);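 further: value from the Navigating the Kinome kinase panel profiling, panel entry STK6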
T5 sequence (O14965 whole entry): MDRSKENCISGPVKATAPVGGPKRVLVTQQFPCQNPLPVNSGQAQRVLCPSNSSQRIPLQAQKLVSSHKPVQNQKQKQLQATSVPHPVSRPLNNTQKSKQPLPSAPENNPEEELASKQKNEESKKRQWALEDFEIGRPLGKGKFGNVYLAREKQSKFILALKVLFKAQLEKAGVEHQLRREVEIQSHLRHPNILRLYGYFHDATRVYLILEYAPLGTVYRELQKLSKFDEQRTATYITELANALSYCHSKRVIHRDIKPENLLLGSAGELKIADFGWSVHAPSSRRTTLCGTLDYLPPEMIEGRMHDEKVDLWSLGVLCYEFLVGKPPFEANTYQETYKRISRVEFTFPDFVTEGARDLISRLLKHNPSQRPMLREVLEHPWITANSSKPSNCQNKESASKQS

[11] = target: Vascular endothelial growth factor receptor 2 (Homo sapiens, UniProt P35968)
[12] = target: Aurora kinase B (Homo sapiens, UniProt Q96GD4)
[13] = target: T6, Mitochondrial peptide methionine sulfoxide reductase (Bos taurus, UniProt P54149); assay: Absorbance-based biochemical high throughput dose response assay for activators of Methionine sulfoxide reductase A (MsrA).
T6 sequence (P54149 whole entry): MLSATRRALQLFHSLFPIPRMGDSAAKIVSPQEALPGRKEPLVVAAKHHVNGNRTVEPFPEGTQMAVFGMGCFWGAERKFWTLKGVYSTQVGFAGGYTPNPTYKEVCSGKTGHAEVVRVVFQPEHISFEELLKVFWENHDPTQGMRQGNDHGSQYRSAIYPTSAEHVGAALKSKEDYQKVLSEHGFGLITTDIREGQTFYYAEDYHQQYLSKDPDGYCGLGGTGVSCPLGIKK

[14] = M. tuberculosis H37Rv growth inhibitors, H37Rv strain (AID 1626)
[15] = target: T7, Apoptotic protease-activating factor 1 (Homo sapiens, UniProt O14727); assay: SAR analysis of small molecule Activators of Apaf-1 in a Fluorescent assay.; conditions: read-out: EC50_Mean;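 further: caspase-3 cleavage of fluorogenic Rh110 DEVD substrate downstream of apoptosome activation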
T7 sequence (O14727 whole entry): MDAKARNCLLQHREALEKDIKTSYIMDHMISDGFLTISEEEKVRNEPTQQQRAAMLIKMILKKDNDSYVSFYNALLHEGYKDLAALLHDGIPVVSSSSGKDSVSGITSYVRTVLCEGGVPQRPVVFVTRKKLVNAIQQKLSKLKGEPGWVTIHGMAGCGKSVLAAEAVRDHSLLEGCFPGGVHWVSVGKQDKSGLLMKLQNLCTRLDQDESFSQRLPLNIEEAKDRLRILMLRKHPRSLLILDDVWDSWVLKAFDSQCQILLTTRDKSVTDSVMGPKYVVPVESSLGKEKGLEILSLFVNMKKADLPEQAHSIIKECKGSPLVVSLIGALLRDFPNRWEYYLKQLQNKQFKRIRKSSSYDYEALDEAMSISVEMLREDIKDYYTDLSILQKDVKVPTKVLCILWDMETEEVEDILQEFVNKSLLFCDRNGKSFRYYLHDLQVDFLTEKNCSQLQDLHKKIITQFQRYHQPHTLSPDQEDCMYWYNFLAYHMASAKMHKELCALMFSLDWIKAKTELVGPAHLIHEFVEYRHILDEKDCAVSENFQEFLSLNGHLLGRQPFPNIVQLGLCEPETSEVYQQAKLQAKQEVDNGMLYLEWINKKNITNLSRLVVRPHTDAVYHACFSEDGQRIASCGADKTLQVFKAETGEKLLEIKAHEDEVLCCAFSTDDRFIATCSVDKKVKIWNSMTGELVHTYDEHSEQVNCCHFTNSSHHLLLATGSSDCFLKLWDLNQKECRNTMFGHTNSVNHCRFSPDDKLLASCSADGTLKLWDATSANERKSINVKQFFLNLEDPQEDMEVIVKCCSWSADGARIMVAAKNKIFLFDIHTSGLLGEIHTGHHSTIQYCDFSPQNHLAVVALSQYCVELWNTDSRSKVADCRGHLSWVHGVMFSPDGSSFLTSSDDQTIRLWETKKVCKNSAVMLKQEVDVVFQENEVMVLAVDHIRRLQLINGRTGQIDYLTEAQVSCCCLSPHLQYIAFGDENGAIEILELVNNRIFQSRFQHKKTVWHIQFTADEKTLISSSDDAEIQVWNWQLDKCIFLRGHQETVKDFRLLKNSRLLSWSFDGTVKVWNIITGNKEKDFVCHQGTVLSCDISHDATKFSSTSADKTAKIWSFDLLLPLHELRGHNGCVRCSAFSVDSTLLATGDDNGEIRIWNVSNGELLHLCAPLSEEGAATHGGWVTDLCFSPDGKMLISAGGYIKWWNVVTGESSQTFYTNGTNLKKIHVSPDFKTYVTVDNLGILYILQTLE

Sequence of Aurora kinase B (Q96GD4 whole entry): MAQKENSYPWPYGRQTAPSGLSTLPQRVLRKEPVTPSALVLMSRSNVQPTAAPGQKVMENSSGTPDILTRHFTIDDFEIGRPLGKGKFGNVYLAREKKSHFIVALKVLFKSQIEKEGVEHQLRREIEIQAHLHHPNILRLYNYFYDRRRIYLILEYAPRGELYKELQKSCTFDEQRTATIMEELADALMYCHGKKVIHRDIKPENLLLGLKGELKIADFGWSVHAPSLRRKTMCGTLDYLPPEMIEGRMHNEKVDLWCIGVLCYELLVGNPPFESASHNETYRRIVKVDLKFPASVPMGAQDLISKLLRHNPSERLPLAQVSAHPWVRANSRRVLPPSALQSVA
Sequence of Ras and Rab interactor 1/Tyrosine-protein kinase ABL1 (P00519 whole entry): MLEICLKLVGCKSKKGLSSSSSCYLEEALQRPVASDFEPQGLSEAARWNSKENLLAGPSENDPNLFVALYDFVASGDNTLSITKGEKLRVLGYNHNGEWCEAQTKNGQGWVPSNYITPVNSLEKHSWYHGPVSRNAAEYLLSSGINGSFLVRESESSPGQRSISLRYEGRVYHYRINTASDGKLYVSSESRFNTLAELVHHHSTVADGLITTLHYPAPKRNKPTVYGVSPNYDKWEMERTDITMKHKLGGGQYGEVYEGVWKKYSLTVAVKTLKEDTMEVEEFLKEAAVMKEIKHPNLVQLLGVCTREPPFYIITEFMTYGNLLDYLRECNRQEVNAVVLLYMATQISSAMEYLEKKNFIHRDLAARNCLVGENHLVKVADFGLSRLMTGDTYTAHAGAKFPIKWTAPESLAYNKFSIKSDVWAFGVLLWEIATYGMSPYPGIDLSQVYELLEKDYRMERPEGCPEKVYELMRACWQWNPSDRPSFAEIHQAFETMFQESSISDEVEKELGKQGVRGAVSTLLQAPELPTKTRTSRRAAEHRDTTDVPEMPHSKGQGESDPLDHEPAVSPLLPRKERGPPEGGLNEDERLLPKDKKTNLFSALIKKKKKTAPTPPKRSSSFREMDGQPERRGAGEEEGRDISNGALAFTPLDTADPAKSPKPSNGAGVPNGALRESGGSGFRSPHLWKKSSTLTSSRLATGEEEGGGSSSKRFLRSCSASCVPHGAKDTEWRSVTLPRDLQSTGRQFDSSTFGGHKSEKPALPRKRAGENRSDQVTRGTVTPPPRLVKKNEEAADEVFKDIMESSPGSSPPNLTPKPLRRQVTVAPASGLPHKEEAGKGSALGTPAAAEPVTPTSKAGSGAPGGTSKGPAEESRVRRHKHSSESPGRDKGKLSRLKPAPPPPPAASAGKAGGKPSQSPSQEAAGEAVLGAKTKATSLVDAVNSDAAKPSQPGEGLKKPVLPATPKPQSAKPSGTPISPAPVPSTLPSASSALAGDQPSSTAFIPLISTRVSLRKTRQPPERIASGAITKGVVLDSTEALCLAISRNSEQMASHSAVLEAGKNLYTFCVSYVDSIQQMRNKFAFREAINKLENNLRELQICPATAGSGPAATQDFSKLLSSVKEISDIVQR
Sequence of Ras and Rab interactor 1/Tyrosine-protein kinase ABL1 (Q13671 whole entry): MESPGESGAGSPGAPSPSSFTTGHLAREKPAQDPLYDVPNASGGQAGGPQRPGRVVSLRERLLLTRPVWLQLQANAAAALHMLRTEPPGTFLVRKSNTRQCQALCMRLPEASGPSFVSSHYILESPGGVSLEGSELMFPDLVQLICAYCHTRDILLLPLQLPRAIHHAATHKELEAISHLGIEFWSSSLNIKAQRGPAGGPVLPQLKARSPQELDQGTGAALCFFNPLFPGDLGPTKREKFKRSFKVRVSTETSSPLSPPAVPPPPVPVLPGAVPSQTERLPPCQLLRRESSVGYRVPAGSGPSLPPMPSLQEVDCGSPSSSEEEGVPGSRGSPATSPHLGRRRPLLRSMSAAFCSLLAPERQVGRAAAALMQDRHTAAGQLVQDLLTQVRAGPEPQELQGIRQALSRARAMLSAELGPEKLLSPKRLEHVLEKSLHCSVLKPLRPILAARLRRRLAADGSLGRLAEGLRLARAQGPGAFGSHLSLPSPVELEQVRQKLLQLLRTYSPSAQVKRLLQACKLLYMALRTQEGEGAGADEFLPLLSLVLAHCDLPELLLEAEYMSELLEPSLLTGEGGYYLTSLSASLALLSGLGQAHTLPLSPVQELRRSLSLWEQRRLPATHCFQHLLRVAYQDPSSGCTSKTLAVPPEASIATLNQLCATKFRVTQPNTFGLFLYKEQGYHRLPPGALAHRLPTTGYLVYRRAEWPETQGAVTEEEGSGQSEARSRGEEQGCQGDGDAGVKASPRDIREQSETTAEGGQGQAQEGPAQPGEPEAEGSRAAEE
Sequence of Vascular endothelial growth factor receptor 2 (P35968 whole entry): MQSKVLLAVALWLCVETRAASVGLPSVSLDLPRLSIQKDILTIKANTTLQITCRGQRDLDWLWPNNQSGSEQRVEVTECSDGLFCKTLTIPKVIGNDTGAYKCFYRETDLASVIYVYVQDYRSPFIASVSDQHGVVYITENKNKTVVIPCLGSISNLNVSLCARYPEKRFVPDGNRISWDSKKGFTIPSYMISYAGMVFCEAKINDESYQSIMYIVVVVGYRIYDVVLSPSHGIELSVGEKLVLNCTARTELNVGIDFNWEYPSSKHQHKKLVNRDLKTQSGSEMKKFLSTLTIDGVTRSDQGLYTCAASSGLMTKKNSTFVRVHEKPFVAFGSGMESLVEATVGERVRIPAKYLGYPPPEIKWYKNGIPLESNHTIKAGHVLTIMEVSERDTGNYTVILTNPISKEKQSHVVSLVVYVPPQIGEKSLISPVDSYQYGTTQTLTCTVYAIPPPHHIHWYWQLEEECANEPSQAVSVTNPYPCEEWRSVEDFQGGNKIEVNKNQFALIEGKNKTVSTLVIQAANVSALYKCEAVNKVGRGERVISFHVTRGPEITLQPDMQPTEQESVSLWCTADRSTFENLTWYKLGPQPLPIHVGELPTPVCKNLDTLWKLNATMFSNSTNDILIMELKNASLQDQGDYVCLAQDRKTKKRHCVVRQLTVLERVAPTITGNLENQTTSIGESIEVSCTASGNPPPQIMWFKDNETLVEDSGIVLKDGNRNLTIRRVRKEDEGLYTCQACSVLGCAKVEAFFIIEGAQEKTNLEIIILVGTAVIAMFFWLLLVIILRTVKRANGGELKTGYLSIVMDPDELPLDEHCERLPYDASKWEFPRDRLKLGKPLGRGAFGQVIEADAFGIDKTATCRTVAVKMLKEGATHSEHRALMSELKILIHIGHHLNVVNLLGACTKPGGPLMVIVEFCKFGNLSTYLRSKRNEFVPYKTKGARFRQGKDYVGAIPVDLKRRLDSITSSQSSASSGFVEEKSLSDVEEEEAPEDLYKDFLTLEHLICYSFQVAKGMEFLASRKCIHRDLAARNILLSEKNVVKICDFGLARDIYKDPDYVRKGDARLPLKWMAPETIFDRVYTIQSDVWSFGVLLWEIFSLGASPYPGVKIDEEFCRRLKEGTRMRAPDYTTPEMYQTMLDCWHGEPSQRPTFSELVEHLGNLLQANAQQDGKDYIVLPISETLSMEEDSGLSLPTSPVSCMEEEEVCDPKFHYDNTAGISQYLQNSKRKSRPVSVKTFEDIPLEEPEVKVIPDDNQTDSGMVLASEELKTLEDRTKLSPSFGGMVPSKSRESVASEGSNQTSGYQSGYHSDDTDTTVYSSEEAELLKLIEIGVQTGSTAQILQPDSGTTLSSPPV

Question: With O=C(Nc1nc2ccc(Cl)cc2s1)c1sccc1Cl as the molecule, how does the IC50 [1] read?
Answer: 0.755 µM (active)

Question: What about the IC50 [2] of the same molecule?
Answer: 6.06 µM (active)

Question: And the IC50 [3]?
Answer: 0.78 µM (active)

Question: What about the IC50 [4] of the same molecule?
Answer: 0.77 µM (active)

Question: What about the IC50 [5] of the same molecule?
Answer: 15.4 µM (active)

Question: What about the IC50 [6] of the same molecule?
Answer: 9.04 µM (active)

Question: What about the IC50 [7] of the same molecule?
Answer: 0.73 µM (active)

Question: What about the IC50 [8] of the same molecule?
Answer: 0.91 µM (active)

Question: Which IC50 [9] does the source give for CCC(C)(C)n1nnnc1C(c1cccnc1)N1CCCc2ccccc21 (stereo not drawn) here?
Answer: 6.9 µM (active)

Question: For CCCS(=O)(=O)Nc1ccc2c(c1)C(=NO)c1ccccc1-2, which Ki [10] is on record?
Answer: 2 µM (active)

Question: What about the Ki [11] of the same molecule?
Answer: 1 µM (active)

Question: What about the Ki [12] of the same molecule?
Answer: 0.01 µM (active)

Question: Which EC50 [13] does the source give for CCOc1ccc(NC(C(=O)Nc2cccc(C(C)=O)c2)c2ccccc2)cc1 (stereo not drawn) here?
Answer: > 104 µM (inactive)

Question: And the IC50 [14]?
Answer: > 100 µM (active)

Question: For O=C(N/N=C\c1c[nH]c2ccccc12)c1cccs1, which IC50 [1] is on record?
Answer: 75.5 µM (active)

Question: What about the IC50 [2] of the same molecule?
Answer: 34.4 µM (active)

Question: What about the IC50 [5] of the same molecule?
Answer: 43.3 µM (active)

Question: And the IC50 [6]?
Answer: 40.8 µM (active)

Question: For COc1cc(N2CC(C(=O)O)CC2=O)c(OC)cc1Cl (stereo not drawn), which EC50 [15] is on record?
Answer: > 100 µM (inactive)

Question: Which IC50 [3] does the source give for CN(C)S(=O)(=O)c1ccc2nc(NC(=O)c3c(F)cccc3F)sc2c1 here?
Answer: > 99 µM (inactive)

Question: And the IC50 [4]?
Answer: > 99 µM (inactive)

Question: What about the IC50 [7] of the same molecule?
Answer: > 99 µM (inactive)

Question: And the IC50 [8]?
Answer: > 99 µM (inactive)

— ChEMBL document CHEMBL1201862, “PubChem BioAssay data set” (2004)
